# According to patent US7390812B2, “N, N'-disubstituted piperazine compounds and their use as analgesics” (Gruenenthal GmbH, priority 2001, dated 2008):
# Legend:
# NA transporter = target: T1, NA transporter (Rattus norvegicus, UniProt Q63380); experiment: Noradrenaline reuptake inhibition (NA uptake inhibition) in synaptosomes; assay type: biochemical; settings: synaptosomes from hypothalamus of male rat brains
# T1 construct: synaptosomes were freshly isolated from rat brain regions; from tissue; host or cells: rat hypothalamus synaptosomes (P2 fraction)
# T1 sequence (Q63380 1-617): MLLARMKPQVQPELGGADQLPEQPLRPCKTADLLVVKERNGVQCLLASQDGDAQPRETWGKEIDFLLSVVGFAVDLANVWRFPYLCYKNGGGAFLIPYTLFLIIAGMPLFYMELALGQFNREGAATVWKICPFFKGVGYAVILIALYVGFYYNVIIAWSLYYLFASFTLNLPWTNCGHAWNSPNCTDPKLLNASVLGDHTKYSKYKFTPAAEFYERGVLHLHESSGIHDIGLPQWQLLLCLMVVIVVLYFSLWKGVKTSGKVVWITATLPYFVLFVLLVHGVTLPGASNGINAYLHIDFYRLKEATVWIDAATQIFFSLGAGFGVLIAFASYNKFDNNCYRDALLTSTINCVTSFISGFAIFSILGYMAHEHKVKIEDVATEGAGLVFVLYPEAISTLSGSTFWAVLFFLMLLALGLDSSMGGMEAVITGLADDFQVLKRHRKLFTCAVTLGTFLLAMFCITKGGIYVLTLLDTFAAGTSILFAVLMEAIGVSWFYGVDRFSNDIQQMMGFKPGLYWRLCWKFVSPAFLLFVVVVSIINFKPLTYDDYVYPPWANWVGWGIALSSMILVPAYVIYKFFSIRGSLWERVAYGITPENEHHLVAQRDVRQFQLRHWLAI
# Method: In order to be able to carry out these in vitro studies, synaptosomes were freshly isolated from rat brain regions. A so-called “P2” fraction was used, which was prepared according to the instructions given by Gray and Whittaker (E. G. Gray and V. P. Whittaker (1962) J. Anat. 76, 79-88).
# [1] = test system: binding site 2 of the sodium channel; experiment: Binding investigations at sodium channel binding site 2 (BTX binding); settings: 10 μM; rat cerebrocortex synaptosomes; [3H]-Batrachotoxinin A20 α-benzoate 10 nM; 37° C., 120 min
# Method: Binding Investigations at Sodium Channel Binding Site 2
# Binding site 2 of the sodium channel is the so-called batrachotoxin (BTX) binding site. [^3H]-Batrachotoxinin A20 α-benzoate (10 nM in the batch) was used as ligand. These ion channel particles (synaptosomes) were enriched from rat cerebrocortex after Gray and Whittaker (E. G. Gray and V. P. Whittaker (1962) J. Anat. 76, 79-88). The radioactivity measured in the presence of veratridine (0.3 mM in the batch) is defined as non-specific binding.
# The assay conditions were as published by Pauwels, Leysen and Laduron (P. J. Pauwels, J. E. Leysen and P. M. Laduron (1986) Eur. J. Pharmacol. 124, 291-298). Incubation at 37° C. for 120 min.
inhibition at 10 µM (NA transporter) [%],SMILES,BTX binding at 10 μM [%] inhibition [1] [%]
70,CN1CCN(CC2CCCCCC2(O)c2ccc(Cl)cc2)CC1 (stereo not shown) [1-(4-Chloro-phenyl)-2-(4-methyl-piperazin-1-ylmethyl)-cycloheptanol],69
66,Cc1cc(C2(O)CCCCCC2CN2CCN(C)CC2)ccc1F (stereo not shown) [1-(4-Fluoro-3-methyl-phenyl)-2-(4-methyl-piperazin-1-ylmethyl)-cycloheptanol],69
65,Cc1cc(C2(O)CCCCC2CN2CCN(C)CC2)ccc1F (stereo not shown) [1-(4-Fluoro-3-methyl-phenyl)-2-(4-methyl-piperazin-1-ylmethyl)-cyclohexanol],60
44,Cc1cccc(C2(O)CCCCC2CN2CCN(C)CC2)c1 (stereo not shown) [2-(4-Methyl-piperazin-1-ylmethyl)-1-m-tolyl-cyclohexanol],58
75,Cc1ccc(C2(O)CCCCC2CN2CCN(C)CC2)cc1 (stereo not shown) [2-(4-Methyl-piperazin-1-ylmethyl)-1-p-tolyl-cyclohexanol],53
71,CN1CCN(CC2CCCCC2(O)CCc2ccccc2)CC1 (stereo not shown) [2-(4-Methyl-piperazin-1-ylmethyl)-1-phenethyl-cyclohexanol],65
61,CN1CCN(CC2CCCCCCC2(O)CCc2ccccc2)CC1 (stereo not shown) [2-(4-Methyl-piperazin-1-ylmethyl)-1-phenethyl-cyclooctanol],78
50,CN1CCN(CC2CCCCCC2(O)c2ccccc2)CC1 (stereo not shown) [2-(4-Methyl-piperazin-1-ylmethyl)-1-phenyl-cycloheptanol],63
62,CCC(O)(c1ccc(C(C)(C)C)cc1)C(C)CN1CCN(c2cccc(Cl)c2)CC1 (stereo not shown) [3-(4-tert-Butyl-phenyl)-1-[4-(3-chloro-phenyl)-piperazin-1-yl]-2-methyl-pentan-3-ol],–
55,CCC(O)(Cc1ccccc1)C(C)CN1CCN(c2cccc(Cl)c2)CC1 (stereo not shown) [3-Benzyl-1-[4-(3-chloro-phenyl)-piperazin-1-yl]-2-methyl-pentan-3-ol],–
88,CCC(O)(CCc1ccccc1)C(C)CN1CCN(C)CC1 (stereo not shown) [3-Ethyl-2-methyl-1-(4-methyl-piperazin-1-yl)-5-phenyl-pentan-3-ol],74
46,CCC(O)(C#Cc1ccccc1)C(C)CN1CCN(c2cccc(Cl)c2)CC1 (stereo not shown) [5-[4-(3-Chloro-phenyl)-piperazin-1-yl]-3-ethyl-4-methyl-1-phenyl-pent-1-yn-3-ol],–
53,C=CC(O)(CC)C(C)CN1CCN(c2cccc(Cl)c2)CC1 (stereo not shown) [5-[4-(3-Chloro-phenyl)-piperazin-1-yl]-3-ethyl-4-methyl-pent-1-en-3-ol],–
